Results on 20 compounds are retold here after patent US20200375949A1, “BISPHENOL COMPOUNDS” (THE TRUSTEES OF THE UNIVERSITY OF PENNSYLVANIA, priority 2017, published 2020).

Values after ≈ are worked out from the molar mass of the structure shown.

Holding throughout (format): cell-based
The subject of data set [1] is red blood cells (mechanically defibrinated sheep blood). In words: Hemolysis assay (cell lysis). More on the design: red blood cell lysis: unit not given here. Conditions: 1 hour, 37° C. Here is the method: The effects of the compounds described herein to lyse cells was evaluated in this example. Hemolysis assays were performed on mechanically defibrinated sheep blood (Hemostat Labs: DSB030). 1.5 mL of blood was placed into a microcentrifuge tube and centrifuged at 10,000 rpm for ten minutes. The supernatant was removed and then the cells were resuspended with 1 mL of phosphate-buffered saline (PBS). The suspension was centrifuged as previously, the supernatant was removed, and cells were resuspended two more times. The final cell suspension was diluted twentyfold with PBS. The twentyfold suspension dilution was then aliquoted into microcentrifuge tubes containing compound serially diluted in PBS. TritonX (1% by volume) served as a positive control (100% lysis marker) and sterile PBS served as a negative control (0% lysis marker). Samples were then placed in an incubator at 37° C. and shaken at 200 rpm. After 1 hour, the samples were centrifuged at 10,000 rpm for ten minutes. The absorbance of the supernatant was measured with a UV spectrometer at a 540 nm wavelength. See, e.g., Peng, Chem. Comm. 2011, 47, 4896-4898.

Data set [2] deals with Streptococcus mutans wild-type strain UA159. The data set is described as follows: MIC assay, S. mutans. Conditions: planktonic, 5% CO2, 37° C., 20-24 hours. The text has this: (§1) Streptococcus mutans wild-type strain UA159 was provided by Dr. Bettina Buttaro from Temple University Medical School, Philadelphia, Pa. Streptococcus gordonii strain DL1 and Streptococcus sanguinis strain 10904 were provided by Dr. Robert G. Quivey from University of Rochester Medical School. Streptococcus gordonii strain DL1 may be obtained from the American Type Culture Collection under accession #49818. Streptococcus sanguinis strain 10904 may be obtained from the National Collection of Type Cultures under accession #10904. Bacteria were routinely maintained on in Bacto™ Todd-Hewitt (TH) agar plates and liquid cultures were grown in Bacto™ Todd-Hewitt broth (THB). For growth of biofilms, THB was supplemented with 0.1% sucrose. Incubation was stagnant at 37° C. Bacterial strains Methicillin-Resistant Staphylococcus aureus HPV107, Staphylococcus epidermidis Fussel [NCTC 11047, R. Hugh 2466], Streptococcus sobrinus SL1 [CCM 6070, CNCTC 9/89], Enterococcus faecalis NCTC 775 [DSM 20478, JCM 8726, NCDO 581, Tissier], Pseudomonas aeruginosa [CCEB 481, MDB strain BU 277, NCIB 8295, NCPPB 1965, NCTC 10332, NRRL B-771, R. Hugh 815], Serratia marcescens BS 303 [CDC 813-60, NCIB 9155, NCTC 10211], and Acinetobacter baumannii 2208 [81, DSM 6974] were purchased from the American Type Culture Collection.
(§2) Stock solutions of compounds (10 mM) were serial diluted (200 μL, 100 μL, 50 μL, 10 μL, and 2 μL) in THB media in flat-bottom 96-well microtiter plates (total volume 100 μL). Bacterial cultures were grown in brain heart infusion or nutrient broth media to mid-exponential phase, back diluted to an OD of 0.1 and then inoculated into the 96-well plate to reach a final volume of 200 μL. Plates were inoculated at 37° C. in 5% CO2 for 20-24 hours upon which time wells were evaluated visually for bacterial growth and/or the wells' OD630 was evaluated via spectrophotometer. […] DMSO controls corresponding to each test concentration were performed. Biological triplicates were performed to confirm results.

Data set [3] has as its system Streptococcus sanguinis strain 10904. In words: MIC assay, S. sanguinis. Conditions: 5% CO2, 37° C., 20-24 hours.
Excerpt: as §1, §2

The test system of data set [4] is Streptococcus gordonii strain DL1. The data set is described as follows: MIC assay, S. gordonii. Conditions: 5% CO2, 37° C., 20-24 hours.
Excerpt: as §1, §2

Setting [5] is: Concentration 500 μM, TritonX 100% lysis, PBS 0% lysis.

The term MIC denotes the least concentration at which growth counts as inhibited.

For the compound `COc1cc(CCc2ccc(C(C)(C)C)c(O)c2)ccc1C(C)(C)C` [Compound 1H-2, (tert-butyl)-5-(4-(tert-butyl)-3-methoxyphenethyl)phenol], the “red blood cell lysis” value is recorded as 0.13 in data set [1] (Concentration 0.25 μM); −0.02 in data set [1] (Concentration 0.5 μM); −0.02 in data set [1] (Concentration 1 μM); −0.03 in data set [1] (Concentration 2 μM); 0.16 in data set [1] (Concentration 4 μM); −0.03 in data set [1] (Concentration 8 μM). In addition, the “red blood cell lysis” value in data set [1] (Concentration 16 μM) is recorded as −0.03; in data set [1] (Concentration 32 μM) it was −0.02; in data set [1] (Concentration 63 μM) it was 0.02; in data set [1] (Concentration 125 μM) it was 0.12; in data set [1] (Concentration 250 μM) it was 0.21; in data set [1] (setting [5]), 0.33.

For the compound `CC(C)(C)c1ccc(CCc2cccc(O)c2)cc1O` [Compound 1H-3, 2-(tert-butyl)-5-(3-hydroxyphenethyl)phenol], the “red blood cell lysis” value in data set [1] (Concentration 0.25 μM) is 0.11; in data set [1] (Concentration 0.5 μM) it was 0.00; in data set [1] (Concentration 1 μM) it was −0.03; in data set [1] (Concentration 2 μM), −0.03; in data set [1] (Concentration 4 μM) it was −0.03; in data set [1] (Concentration 8 μM) it was 0.29. The “red blood cell lysis” value in data set [1] (Concentration 16 μM) is recorded as −0.03; in data set [1] (Concentration 32 μM), −0.03; in data set [1] (Concentration 63 μM) it was 0.00; in data set [1] (Concentration 125 μM), 0.46; in data set [1] (Concentration 250 μM), 0.69; in data set [1] (setting [5]) it was 0.81.

Consider `COc1cccc(CCc2ccccc2O)c1` [Compound 6], for which the “red blood cell lysis” value is 0.03 in data set [1] (Concentration 0.25 μM); −0.02 in data set [1] (Concentration 0.5 μM); −0.03 in data set [1] (Concentration 1 μM); −0.03 in data set [1] (Concentration 2 μM); 0.35 in data set [1] (Concentration 4 μM); −0.03 in data set [1] (Concentration 8 μM). Moreover, the “red blood cell lysis” value in data set [1] (Concentration 16 μM) was −0.03; in data set [1] (Concentration 32 μM), −0.02; in data set [1] (Concentration 63 μM), 0.07; in data set [1] (Concentration 125 μM), −0.02; in data set [1] (Concentration 250 μM), 0.02; in data set [1] (setting [5]), 0.27.

On to `Cc1cc(-c2cc(C)c(O)c(C)c2)cc(C)c1O` [Compound A3], for which the MIC in data set [2], in data set [3] and in data set [4] was over 250 µM in each case.

As for `CCCc1c(C)cc(C)c(-c2c(C)cc(C)c(CCC)c2O)c1O` [Compound A4, 4,4’,6,6′-Tetramethyl-3,3′-dipropyl-[1,1′-diphenyl]2,2′-diol], the MIC in data set [2], in data set [3] and in data set [4] was over 250 µM each time.

As for `C=CCc1c(C)cc(C)c(-c2c(C)cc(C)c(CC=C)c2O)c1O` [Compound A5, 3,3′Diallyl-4,4′,6,6′-tetramethyl-[1,1′-biphenyl]-2,2′-diol], the MIC in data set [2], in data set [3] and in data set [4] was over 250 µM in each case.

Take `C=CCc1cc(-c2c(O)cc(C)c(C)c2C)cc(C(C)(C)C)c1O` [Compound A6, 3′-Allyl-5′-(tert-butyl)-4,5,6-trimethyl-[1,1′-biphenyl]2,4′-diol]: the MIC in data set [2], in data set [3] and in data set [4] was over 250 µM in each case.

For `C=CCc1cc(-c2cc(C)ccc2O)cc(C(C)(C)C)c1O` [Compound A8, 3′-Allyl-5′-(tert-butyl)-5-methyl-[1,1′-biphenyl]2,4′-diol], the MIC in data set [2] is over 250 µM; in data set [3], 125 µM (≈ 37.1 µg/mL); in data set [4], 125 µM (≈ 37.1 µg/mL).

Consider `Cc1cc(O)c(-c2cc(C(C)C)c(O)c(C(C)C)c2)c(C)c1C` [Compound A9, 3′,5′-Diisopropyl-4,5,6-trimethyl-[1,1′-biphenyl]-2,4′-diol], for which the MIC in data set [2], in data set [3] and in data set [4] was over 250 µM throughout.

With `C=CCc1cc(-c2cc(C)c(O)cc2C(C)C)cc(CC=C)c1O` [Compound A10, 3′,5′-Diallyl-2-isopropyl-5-methyl-[1,1′-biphenyl]-4,4′-diol], the values for the minimum inhibitory concentration (MIC) in data set [2], in data set [3] and in data set [4] were over 250 µM, 250 µM (≈ 80.6 µg/mL) and 250 µM (≈ 80.6 µg/mL), respectively.

Regarding `Cc1c(O)c(-c2cc(C(C)(C)C)c(O)c(C(C)(C)C)c2)c(C)c(-c2cc(C(C)(C)C)c(O)c(C(C)(C)C)c2)c1O` [Compound A11, 3,3″,5,5″-Tetra-tert-butyl-2′,5′-dimethyl-[1,1′:3′,1″-terphenyl]-4,4′,4″,6′-tetraol], the minimum inhibitory concentration (MIC) in data set [2], in data set [3] and in data set [4] was over 250 µM throughout.

For the compound `Cc1cc(-c2c(O)ccc3ccccc23)cc(C)c1O` [Compound B1, 1-(4-Hydroxy-3,5-dimethylphenyl)naphthalene-2-ol], the minimum inhibitory concentration (MIC) in data set [2], in data set [3] and in data set [4] was over 250 µM throughout.

Consider `COc1cc(-c2c(O)ccc3ccccc23)cc(OC)c1O` [Compound B2, 1-(4-Hydroxy-3,5-dimethoxyphenyl)naphthalen-2-ol], for which the minimum inhibitory concentration (MIC) in data set [2], in data set [3] and in data set [4] was over 250 µM throughout.

Regarding `CC(C)(C)c1cc(-c2c(O)ccc3ccccc23)cc(C(C)(C)C)c1O` [Compound B3], the MIC in data set [2], in data set [3] and in data set [4] was 63 µM (≈ 22 µg/mL) each time.

Take `CC(C)(C)c1cc(-c2c(O)ccc3ccc(O)cc23)cc(C(C)(C)C)c1O` [Compound B4, 1-(3,5-Di-tert-butyl-4-hydroxyphenol)naphthalene-2-7-diol]: the minimum inhibitory concentration (MIC) in data set [2], in data set [3] and in data set [4] was 125 µM (≈ 45.6 µg/mL) throughout.

Consider `CC(C)c1cc(-c2c(O)ccc3cc(Br)ccc23)cc(C(C)C)c1O` [Compound B6, 6-Bromo-1-(4-hydroxy-3,5-diisopropylphenyl)naphthalen-2-ol], for which the minimum inhibitory concentration (MIC) in data set [2], in data set [3] and in data set [4] was over 250 µM in each case.

For the compound `C=CCc1cc(-c2c(O)ccc3cc(OC)ccc23)cc(C(C)(C)C)c1O` [Compound B7, 1-(3-Allyl-5-(tert-butyl)-4-hydroxyphenyl)-6-methoxynaphthalen-2-ol], the MIC in data set [2] is 125 µM (≈ 45.3 µg/mL); in data set [3] it was 63 µM (≈ 22.8 µg/mL); in data set [4] it was 125 µM (≈ 45.3 µg/mL).

Regarding `CCCc1cc(-c2c(O)ccc3cc(Br)ccc23)cc(C(C)(C)C)c1O` [Compound B12, 6-Bromo-1-(3-(tert-butyl)-4-hydroxy-5-propylphenyl)naphthalen-2-ol], the minimum inhibitory concentration (MIC) is over 250 µM in data set [2], 250 µM (≈ 103 µg/mL) in data set [3] and 250 µM (≈ 103 µg/mL) in data set [4].

In the case of `CC(C)c1cc(-c2c(O)ccc3cc(-n4cccn4)ccc23)cc(C(C)C)c1O` [Compound B13, 1-(4-Hydroxy-3,5-diisopropylphenyl)-6-(1H-pyrazol-1-yl)naphthalen-2-ol], the minimum inhibitory concentration (MIC) in data set [2], in data set [3] and in data set [4] was over 250 µM throughout.

Take `C=CCc1cc(-c2c(O)ccc3c(-c4cc(CC=C)c(O)c(C(C)(C)C)c4)c(O)ccc23)cc(C(C)(C)C)c1O` [Compound B14, 1,5-Bis(3-allyl-5-(tert-butyl)-4-hydroxyphenyl)naphthalene-2,6-diol]: the values for the minimum inhibitory concentration (MIC) in data set [2], in data set [3] and in data set [4] were 63 µM (≈ 33.8 µg/mL), 16 µM (≈ 8.59 µg/mL) and 32 µM (≈ 17.2 µg/mL), respectively.
